Earlier results as cited in US20120177693A1, “DEEP LUNG PULMONARY DELIVERY OF TREPROSTINIL” (Aradigm Corporation, priority 2008, published 2012).

Conditions: inhaled; Voswinckel et al.; cited from earlier work

Structure (SMILES): CC#CCC(C)[C@H](O)/C=C/[C@@H]1[C@H]2C/C(=C/CCCC(=O)O)C[C@H]2C[C@H]1O (some centres unmarked) [iloprost]
- Plasma half-life: about 8 min
- Time of peak plasma levels: immediately after the completion of the inhalation session
